Measured values from patent publication US6500414B2, “Aromatic dimethicone copolyol polymers as sunscreen agents in personal care applications” (Siltech LLC, priority 2000, dated 2002).

Test: UV maxima for the absorption
Type: physicochemical
Details: spectral region of the absorption
Text: The following comparison is a common silicone backbone, with differing, “b”, and “c” values. The effect upon solubility at 5% in water and the UV maxima for the absorption are quite dramatic.

C=CCc1ccc(O)c(OC)c1 [eugenol, 2-methoxy-4-(2 propenyl)phenol]
UV absorption region: UV-C region
